As usually defined, the IC50 is the concentration that inhibits the measured activity by half. Higher therefore signals lower potency.

Results on four compounds are retold here after US20220175729A1, “PHARMACEUTICAL USE OF CHLOROPHYLLIDE FOR CANCER THERAPY” (I-SHOU UNIVERSITY, priority 2020, published 2022).

A short description of experiment [1]: DPPH free radical scavenging assay. The class given is biochemical. As to the method: The DPPH assay was used to evaluate the free radical-scavenging of chlorophyllide. Briefly, DPPH (8 mg) was dissolved in methanol (100 mL) to obtain a stock solution of 80 μg/mL. Then, 2.95 mL of the working solution was mixed with 50 μL of sample. After incubation in a dark at room temperature for 20 min, the absorbance was measured at 517 nm. The DPPH scavenging effect (%) was determined using the following formula: […]
where Ac was the absorbance of the blank control, Ai was the absorbance in the presence of the samples, and Aj was the absorbance of the samples alone. Vitamin B2 was used as a reference standard compound.
(In general: Loss of DPPH colour is used to gauge radical scavenging.)

The subject of experiment [2] is MCF7 breast cancer cells. Particulars: FIG. 4 comparison, MTT, 0 to 200 μg/mL.
The test system of experiment [3] is MCF7 breast cancer cells. The experiment is described as follows: Target gene expression by RT-PCR, MCF7. The class given is cell-based, human. Conditions: MCF7 treated with chlorophyllide. An excerpt: (§1) Then, among the 50 candidate genes, CCR1, STIM2, ETNK1, RAP2B, and TOP2A were used as target genes in real-time polymerase chain reaction (RT-PCR).
Experiment [4] deals with MDA-MB-231 breast cancer cells. The experiment is described as follows: Target gene expression by RT-PCR, MDA-MB-231. The class given is cell-based, human. Conditions: MDA-MB-231 treated with chlorophyllide.
Excerpt: as §1

Experiment [5] has as its system MCF7 / MDA-MB-231 breast cancer cells. The experiment is described as follows: Log2 fold change of target genes (Table 5, cell line and method not stated). The class given is cell-based, human. On the procedure: The gene expression profiles of the MCF7 breast cancer cells treated with chlorophyllide or MDA-MB-231 breast cancer cells treated with chlorophyllide and the corresponding untreated cells were analyzed by using next generation sequencing (NGS).
as §1

Regarding `Cc1cc2nc3c(=O)[nH]c(=O)nc-3n(C[C@H](O)[C@H](O)[C@H](O)CO)c2cc1C` [vitamin B2], the DPPH scavenging rate in experiment [1] (100 μg/mL) is on record as 28.05%.
In the case of chlorophyll, in the experiment with MCF7 breast cancer cells [2], the concentration for half-maximal inhibition (IC50) came to 197.31 µg/mL. Moreover, the figures for the DPPH scavenging rate in experiment [1] (100 μg/mL), in experiment [1] (200 μg/mL) and in experiment [1] (400 μg/mL) were 52.95%, 65.11% and 88.62%, respectively. Also, the “EC50 (concentration that can inhibit 50% of DPPH free radicals)” value in experiment [1] (by extrapolation from regression analysis) is 62.14 µg/mL.
Consider chlorophyllide, for which the DPPH scavenging rate in experiment [1] (100 μg/mL) is 31.01%; in experiment [1] (200 μg/mL), 26.92%; in experiment [1] (400 μg/mL), 26.09%. Besides, the “gene expression level by RT-PCR, CCR1” value with MCF7 breast cancer cells [3] (gene CCR1) is given as 6.798; in experiment [4] (gene CCR1), 10.079. In addition, the “gene expression level by RT-PCR, ETNK1” value with MCF7 breast cancer cells [3] (gene ETNK1) is given as 1.987; in experiment [4] (gene ETNK1), 5.954. The “gene expression level by RT-PCR, MAGI1” value is listed as 3.126 in the experiment with MCF7 breast cancer cells [3] (gene MAGI1) and 1.3977 in experiment [4] (gene MAGI1). The “gene expression level by RT-PCR, NLRC5” value in the experiment with MCF7 breast cancer cells [3] (gene NLRC5) turned out to be 0.684; in experiment [4] (gene NLRC5), 5.527. For the same compound, the “gene expression level by RT-PCR, PKN1” value in the experiment with MCF7 breast cancer cells [3] (gene PKN1) was determined as 1.167; in experiment [4] (gene PKN1), 0.5819. In addition, the “gene expression level by RT-PCR, RAP2B” value in the experiment with MCF7 breast cancer cells [3] (gene RAP2B) stood at 0.5882; in experiment [4] (gene RAP2B), 3.694. The “gene expression level by RT-PCR, SLC7A7” value stood at 0.3107 in the experiment on MCF7 breast cancer cells [3] (gene SLC7A7) and 1.159 in experiment [4] (gene SLC7A7). Besides, the results for the “gene expression level by RT-PCR, STIM2” value (in the experiment on MCF7 breast cancer cells [3] (gene STIM2); in experiment [4] (gene STIM2)) were 6.125 and 3.5088, respectively. The “gene expression level by RT-PCR, TOP2A” value in the experiment with MCF7 breast cancer cells [3] (gene TOP2A) amounted to 1.574; in experiment [4] (gene TOP2A), 11.02. For the same compound, the “Log2 fold change, CCR1” value in experiment [5] (gene CCR1) was determined as 5.954. Moreover, the “Log2 fold change, ETNK1” value in experiment [5] (gene ETNK1) was 2.181. Further, the “Log2 fold change, RAP2B” value in experiment [5] (gene RAP2B) was determined as 2.375. In addition, the “Log2 fold change, STIM2” value in experiment [5] (gene STIM2) was 2.783.
For chlorophyllin, the IC50 in the experiment with MCF7 breast cancer cells [2] came to 218.34 µg/mL. Also, the DPPH scavenging rate was determined as 25.68% in experiment [1] (100 μg/mL), 30.58% in experiment [1] (200 μg/mL) and 45.34% in experiment [1] (400 μg/mL).
